Source: US20160345553A1, “TRANSGENIC MOUSE MODELS FOR MC4R” (UNIVERSITE DE MONTREAL, priority 2012, published 2016)

Columns and labels:
[1] = tested on: hMC4R (R165W) knock-in mice; experiment: In vivo test of DCPMP on knock-in mouse model carrying human mutant form of MC4R (food intake, weight loss); conditions: 30 mg per kg i.p. one dose daily for 9 days
Protocol: (§1) Mice were intraperitoneally injected one dose daily with vehicle or DCPMP at 30 mg per kg one hour before light off, for 9 days. Data are the average daily food intake (A, B. C), or the mean of the total body weight loss [total body weight before treatment—total body weight after 9 days treatment] (D), for each experimental group, Data are expressed as Mean±SEM. Numbers of animal per genotype are indicated in brackets.
(§2) Mice were intraperitoneally injected one dose daily with vehicle or N-((2R)-3(2,4-dichlorophenyl)-1-(4-(2-((1-methoxypropan-2-ylamino)methyl)phenyl)piperazin-1-yl)-1-oxopropan-2-yl)propionamide (DCPMP) at 30 mg per kg one hour before light off, for 9 days.
(§3) Animals were individually housed for 4 days prior to starting experiments. […] All animals were weighed prior to compound injection, and doses were normalized to individual animal body weight. Mice were intraperitoneally injected one dose daily with vehicle (1% Tween 80) or DCPMP at 30 mg per kg one hour before lights off (at 5:00 PM), for 9 days. Weight was monitored every 3 days during treatment and after stopping treatment. Food intake was measured during the recovery time for 7 days. Data are the average daily food intake or the mean of total body weight loss [total body weight before treatment—total body weight after 9 days treatment].

[2] = tested on: non-transgenic littermate mice; experiment: In vivo test of DCPMP in non-transgenic littermate mice (food intake); design: species or system mouse; conditions: at the beginning of DCPMP treatment, 30 mg per kg i.p. daily
Protocol: as §1, §2, §3

CCC(=O)N[C@H](Cc1ccc(Cl)cc1Cl)C(=O)N1CCN(c2ccccc2CNC(C)COC)CC1 (stereo partly drawn) [DCPMP, N-((2R)-3(2,4-dichlorophenyl)-1-(4-(2-((1-methoxypropan-2-ylamino)methyl)phenyl)piperazin-1-yl)-1-oxopropan-2-yl)propionamide]
food intake ([1]; hMC4R (R165W) male mice): reducing food intake
weight loss, % of total weight ([1]; initially overweight heterozygous hMC4R (R165W) mice): up to 13%
weight loss, % of total weight ([1]; initially overweight homozygous hMC4R (R165W) mice): ≤ 15%
food consumption [2]: slightly reduced
